≈ marks a conversion by molar mass, not a printed value. Read-outs that look alike come from different tables or passages of the source.
Tests used:
[1] = test system: K. pneumoniae (#3010 & ST258); test: microbe, parasite or virus in culture; assay type: cell-based, Klebsiella pneumoniae; conditions: Klebsiella pneumoniae, read-out: Agar (Noble) Dilution MIC, K. pneumoniae ST258
Procedure: The test media was cation-adjusted MHB (CAMHB, Becton Dickinson) supplemented with 2% Noble Agar (Becton Dickinson) and additionally for AA139 with 0.1% BSA. The agar dilution MIC values were determined as recommended by Clinical and Laboratory Standards Institute (CLSI)[47]. […] The inoculum for the spontaneous mutation plates targeted 10^9 to 10^10 colony-forming units (CFU) per plate. The viable count of each suspension was determined by plating serial ten-fold dilutions onto MHB/NA in duplicate. In addition, agar plates without drug were inoculated as positive controls. Plates were inspected for growth at both 24 and 48 h. Colony counts were determined manually. Using the counts at 48 h, the spontaneous mutation frequency was calculated using the following equation: (average number of colonies from duplicate selection plates)/(total number of cells inoculated onto each plate). If there were no colonies on the antibiotic selection plates, the spontaneous mutation frequency was reported as less than the frequency observed with one colony to indicate that the spontaneous mutation frequency was less than the limit of detection (one CFU).

E. coli ATCC 25922 [2] = test: microbe, parasite or virus in culture; assay type: cell-based, Escherichia coli; design: MIC, Survanta (5%) replicates: unit not given beside the values; conditions: for MIC, Survanta (5%) replicates / MIC, Serum (50%) / MIC, Serum (50%) replicates: E. coli ATCC 25922, FDA control strain; for MIC, Survanta (5%) replicates: BMD with 5% Survanta lung surfactant; for MIC, Serum (50%) / MIC, Serum (50%) replicates: BMD with 50% human serum; for MIC, Serum (50%): mode, or median where no mode, n=4 to 6, where n=2 differs the higher value; for MIC: Escherichia coli, E. coli ATCC 25922, n=2 to 6, mode or median
Procedure, shortened: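 Broth microdilution MIC in Mueller Hinton broth, 12-point 2-fold series from 128 or 64 down to 0.06 or 0.03 μg mL^−1, 5 × 10^5 CFU mL^−1 inoculum. Read visually after 18-20 h at 37 °C without shaking; n ≥ 6. Additional tests in CAMHB, and in MHB with 1% agarose.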

A. baumannii ATCC 19636 = test: microbe, parasite or virus in culture; assay type: cell-based, Acinetobacter baumannii; conditions: for MIC, Survanta (5%) / MIC, Survanta (5%) replicates: A. baumannii ATCC 19636, type strain, BMD with 5% Survanta lung surfactant; for MIC, Survanta (5%): mode, or median where no mode, n=4 to 6, where n=2 differs the higher value; for MIC: Acinetobacter baumannii, ATCC19636, read-out: MIC, Survanta (5%), A. baumannii ATCC 19636 type strain, n=2 to 6, mode or median
E. coli ATCC 25922 [3] = assay type: cell-based, Escherichia coli; conditions: E. coli ATCC 25922, FDA control strain; BMD with 5% Survanta lung surfactant; mode, or median where no mode, n=4 to 6; where n=2 differs the higher value
K. pneumoniae = test: microbe, parasite or virus in culture; assay type: cell-based, Klebsiella pneumoniae; conditions: for MIC: Klebsiella pneumoniae
[4] = ATCC25922, read-out: MIC, SURVANTA (5%), MHB + 5% (v/v) lung surfactant
[5] = K. pneumoniae ATCC 700603, ESBL, OXA-2/SHV-18, BMD with 5% Survanta lung surfactant, mode, or median where no mode, n=4 to 6, where n=2 differs the higher value
[6] = K. pneumoniae ATCC 700603, ESBL, OXA-2/SHV-18, BMD with 5% Survanta lung surfactant, replicate 1
[7] = K. pneumoniae ATCC 700603, ESBL, OXA-2/SHV-18, BMD with 5% Survanta lung surfactant, replicate 2
[8] = K. pneumoniae ATCC 700603, ESBL, OXA-2/SHV-18, BMD with 50% human serum, mode, or median where no mode, n=4 to 6, where n=2 differs the higher value
[9] = K. pneumoniae ATCC 700603, ESBL, OXA-2/SHV-18, BMD with 50% human serum, replicate 1
[10] = K. pneumoniae ATCC 700603, ESBL, OXA-2/SHV-18, BMD with 50% human serum, replicate 2
[11] = K. pneumoniae BAA-2146, NDM-1, BMD with 5% Survanta lung surfactant, mode, or median where no mode, n=4 to 6, where n=2 differs the higher value
[12] = K. pneumoniae BAA-2146, NDM-1, BMD with 5% Survanta lung surfactant, replicate 1
[13] = K. pneumoniae BAA-2146, NDM-1, BMD with 5% Survanta lung surfactant, replicate 2
[14] = K. pneumoniae BAA-2146, NDM-1, BMD with 5% Survanta lung surfactant, replicate 3
[15] = K. pneumoniae BAA-2146, NDM-1, BMD with 5% Survanta lung surfactant, replicate 4
[16] = ATCC13883, read-out: MIC, Serum (50%)
[17] = ATCC700603, read-out: MIC, Serum (50%)
[18] = ATCC700603, read-out: MIC, Survanta (5%)
[19] = BAA2146, read-out: MIC, Survanta (5%)

Compound | MIC, Survanta (5%) replicates (E. coli ATCC 25922 [2]; replicate 1) | MIC, Survanta (5%) replicates (E. coli ATCC 25922 [2]; replicate 2) | MIC, Survanta (5%) replicates (E. coli ATCC 25922 [2]; replicate 3) | MIC, Survanta (5%) replicates (E. coli ATCC 25922 [2]; replicate 4) | MIC, Serum (50%) (E. coli ATCC 25922 [2]) | MIC, Serum (50%) replicates (E. coli ATCC 25922 [2]; replicate 1) | MIC, Serum (50%) replicates (E. coli ATCC 25922 [2]; replicate 2) | MIC, Serum (50%) replicates (E. coli ATCC 25922 [2]; replicate 3) | MIC, Serum (50%) replicates (E. coli ATCC 25922 [2]; replicate 4) | MIC (E. coli ATCC 25922 [2]; [4]) | MIC, Survanta (5%) (A. baumannii ATCC 19636) | MIC, Survanta (5%) replicates (A. baumannii ATCC 19636; replicate 2) | MIC, Survanta (5%) replicates (A. baumannii ATCC 19636; replicate 3) | MIC, Survanta (5%) replicates (A. baumannii ATCC 19636; replicate 4) | MIC (A. baumannii ATCC 19636) | MIC, Survanta (5%) (E. coli ATCC 25922 [3]) | MIC, Survanta (5%) (K. pneumoniae; [5]) | MIC, Survanta (5%) replicates (K. pneumoniae; [6]) | MIC, Survanta (5%) replicates (K. pneumoniae; [7]) | MIC, Serum (50%) (K. pneumoniae; [8]) | further results
C[C@H]1COc2c(N3CCN(C)CC3)c(F)cc3c(=O)c(C(=O)O)cn1c23 [LEV, levofloxacin, reference compound] | – | – | – | – | – | – | – | – | – | – | – | – | – | – | – | – | – | – | – | – | MIC [1]: > 8 µg/mL
COc1cc(Cc2cnc(N)nc2N)cc(OC)c1OC [Trimethoprim] | 1 | 1 | 1 | 1 | 4 | 4 | 2 | 4 | 4 | 1 µg/mL | 32 | >64 | 16 | 32 | 32 µg/mL (≈ 110 µM) | 1 | 4 | 4 | 2 | 32 | MIC (E. coli ATCC 25922 [2]; ATCC25922, read-out: MIC, Serum (50%), MHB + 50% (v/v) human serum): 4 µg/mL; MIC, Survanta (5%) replicates (A. baumannii ATCC 19636; replicate 1): >64; MIC, Serum (50%) (K. pneumoniae): 0.5; MIC, Serum (50%) replicates (K. pneumoniae): 0.5; MIC, Survanta (5%) (K. pneumoniae): 1; MIC, Serum (50%) replicates (K. pneumoniae; [9]): 32; MIC, Serum (50%) replicates (K. pneumoniae; [10]): 16; MIC, Survanta (5%) (K. pneumoniae; [11]): >64; MIC, Survanta (5%) replicates (K. pneumoniae; [12]): >64; MIC, Survanta (5%) replicates (K. pneumoniae; [13]): >64; MIC, Survanta (5%) replicates (K. pneumoniae; [14]): >64; MIC, Survanta (5%) replicates (K. pneumoniae; [15]): >64; MIC (K. pneumoniae; [16]): 0.5 µg/mL (≈ 1.72 µM); MIC (K. pneumoniae; ATCC13883, read-out: MIC, Survanta (5%)): 1 µg/mL (≈ 3.44 µM); MIC (K. pneumoniae; [17]): 32 µg/mL (≈ 110 µM); MIC (K. pneumoniae; [18]): 4 µg/mL (≈ 13.8 µM); MIC (K. pneumoniae; [19]): > 64 µg/mL
O=C(O)c1cn(C2CC2)c2cc(N3CCNCC3)c(F)cc2c1=O [Ciprofloxacin, ciprofloxacin] | ≤0.03 | ≤0.03 | ≤0.03 | ≤0.03 | ≤0.03 | ≤0.03 | ≤0.03 | ≤0.03 | ≤0.03 | ≤ 0.03 µg/mL | 1 | 1 | 1 | 1 | 1 µg/mL (≈ 3.02 µM) | ≤0.03 | 1 | 2 | 2 | 0.125 | MIC, Survanta (5%) replicates (K. pneumoniae; K. pneumoniae ATCC 13883, type strain, BMD with 5% Survanta lung surfactant, replicate 1): 0.5; MIC, Survanta (5%) replicates (K. pneumoniae; K. pneumoniae ATCC 13883, type strain, BMD with 5% Survanta lung surfactant, replicate 2): 0.5; MIC, Survanta (5%) replicates (K. pneumoniae; K. pneumoniae ATCC 13883, type strain, BMD with 5% Survanta lung surfactant, replicate 3): 0.125; MIC, Survanta (5%) replicates (K. pneumoniae; K. pneumoniae ATCC 13883, type strain, BMD with 5% Survanta lung surfactant, replicate 4): 0.125; MIC, Serum (50%) replicates (K. pneumoniae; K. pneumoniae ATCC 13883, type strain, BMD with 50% human serum, replicate 1): ≤0.03; MIC, Serum (50%) replicates (K. pneumoniae; K. pneumoniae ATCC 13883, type strain, BMD with 50% human serum, replicate 2): ≤0.03; MIC, Serum (50%) (K. pneumoniae; K. pneumoniae ATCC 13883, type strain, BMD with 50% human serum, where n=2 differs the higher value is recorded): ≤0.03; MIC, Survanta (5%) replicates (K. pneumoniae; K. pneumoniae ATCC 700603, ESBL, OXA-2/SHV-18, BMD with 5% Survanta lung surfactant, replicate 3): 0.5; MIC, Survanta (5%) replicates (K. pneumoniae; K. pneumoniae ATCC 700603, ESBL, OXA-2/SHV-18, BMD with 5% Survanta lung surfactant, replicate 4): 1; MIC, Serum (50%) replicates (K. pneumoniae; [9]): 0.125; MIC, Serum (50%) replicates (K. pneumoniae; [10]): 0.06; MIC, Survanta (5%) (K. pneumoniae; [11]): >64; MIC, Survanta (5%) replicates (K. pneumoniae; [12]): >64; MIC, Survanta (5%) replicates (K. pneumoniae; [13]): >64; MIC, Survanta (5%) replicates (K. pneumoniae; [14]): >64; MIC, Survanta (5%) replicates (K. pneumoniae; [15]): >64; MIC (K. pneumoniae; [16]): ≤ 0.03 µg/mL; MIC (K. pneumoniae; [17]): 0.125 µg/mL (≈ 0.377 µM); MIC (K. pneumoniae; [18]): 1 µg/mL (≈ 3.02 µM); MIC (K. pneumoniae; [19]): > 64 µg/mL

Reference: paper PMC7311426, “An amphipathic peptide with antibiotic activity against multidrug-resistant Gram-negative bacteria” (Nature Communications, 2020)
